In PubChem BioAssay (NCI):
Several values for one entry are separate records, joined by “and”; a condition that tells them apart may be missing. Identical values can stand only once.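 96-well plates; 48 h exposure; 5 concentrations. Endpoints by linear interpolation between flanking doses. Not reached: highest tested concentration assigned. The concentration for 50% growth inhibition is given as GI50. TGI: total growth inhibition.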

Tests used:
Test in all cases: DTP human tumour cell line panel, 48 h
NCI-H226 lung = tested on: NCI-H226 lung
SF-295 CNS = tested on: SF-295 CNS
OVCAR-3 ovarian = tested on: OVCAR-3 ovarian
MOLT-4 leukemia = tested on: MOLT-4 leukemia
MDA-MB-435 = tested on: MDA-MB-435
HCT-116 colon = tested on: HCT-116 colon
NCI-H522 lung = tested on: NCI-H522 lung
MCF7 breast = tested on: MCF7 breast
UO-31 renal = tested on: UO-31 renal
UACC-257 melanoma = tested on: UACC-257 melanoma

| Compound | GI50 (NCI-H226 lung) [µM] | TGI (NCI-H226 lung) | GI50 (SF-295 CNS) [µM] | TGI (SF-295 CNS) | GI50 (OVCAR-3 ovarian) [µM] | TGI (OVCAR-3 ovarian) | GI50 (MOLT-4 leukemia) [µM] | TGI (MOLT-4 leukemia) [µM] | GI50 (MDA-MB-435) [µM] | TGI (MDA-MB-435) [µM] | GI50 (HCT-116 colon) [µM] | TGI (HCT-116 colon) | GI50 (NCI-H522 lung) [µM] | TGI (NCI-H522 lung) [µM] | GI50 (MCF7 breast) [µM] | TGI (MCF7 breast) [µM] | GI50 (UO-31 renal) [µM] | TGI (UO-31 renal) | GI50 (UACC-257 melanoma) [µM] | TGI (UACC-257 melanoma) |
| --- | --- | --- | --- | --- | --- | --- | --- | --- | --- | --- | --- | --- | --- | --- | --- | --- | --- | --- | --- | --- |
| OCc1ncc(-c2ccccc2)s1 | > 100 | > 100 µM | > 100 | > 100 µM | > 100 | > 100 µM | > 100 | > 100 | > 100 | > 100 | > 100 | > 100 µM | > 100 | > 100 | > 100 | > 100 | > 100 | > 100 µM | > 100 | > 100 µM |
| Oc1cc2c(cc1C(c1ccc3c(c1)OCO3)N1CCN(C(c3ccc4c(c3)OCO4)c3cc4c(cc3O)OCO4)CC1)OCO2 (centres undefined) | – | 29.6 µM | – | 33.2 µM | – | 30.8 µM | – | 28.4 | – | 35 | – | 29.1 µM | – | 33.5 | – | > 100 | – | 29.3 µM | – | 33.4 µM |
| Cc1[nH]c(=O)nc(N/N=C/c2ccc(Cl)cc2)c1C(=O)Nc1ccc(Cl)cc1 | – | > 100 µM | – | 43.4 µM | – | 35.6 µM | – | > 91.9 | – | > 100 | – | 17.1 µM | – | 64.1 | – | > 100 | – | > 100 µM | – | > 94.6 µM |
| Cc1cc(S(=O)(=O)Nc2nc3ccccc3[nH]2)c(SCc2ccccc2)cc1Cl | 43.8 | > 100 µM | 21.3 | > 100 µM | 14.2 | 58.4 µM | 36.4 | 85.6 | > 100 | > 100 | 51.6 | > 100 µM | > 100 | > 100 | > 100 | > 100 | > 100 | > 100 µM | > 100 | > 100 µM |
| CC(=O)OC1CC2(O)C(CCC3(C)C(c4ccc(=O)oc4)CCC32O)C2(C)CCC(OC3OC(CO)C(O)C(O)C3O)C=C12 (centres undefined) | 0.051 | 0.176 µM | 0.0302 | 0.168 µM | 0.0282 | 0.0949 µM | < 0.01 | 0.015 | 0.0342 | 0.139 | 0.0111 | 0.105 µM | < 0.01 | 0.148 | 0.0183 | 0.167 | 0.0182 | 0.0466 µM | 0.0383 | 0.206 µM |
| O=C(O)c1nnsc1-c1csnn1 | – | > 100 µM | – | > 100 µM | – | > 100 µM | – | > 100 | – | > 100 | – | > 100 µM | – | > 100 | – | > 100 | – | > 100 µM | – | > 100 µM |
| Clc1ccc(N/N=C(\c2ccccc2)c2ccccn2)nc1 | 0.197 | 5.16 µM and 0.736 µM | 0.506 | > 53.6 µM and 17.7 µM | 0.0379 | 11.2 µM and > 28.6 µM | 0.0367 | – | 0.42 | > 55.9 | 0.0313 | 10.6 µM and 11.1 µM | 0.0805 | 2.77 | 0.0302 | > 100 | 0.163 | 2.38 µM and 0.817 µM | 0.154 | 12 µM and 20.7 µM |
| N=C1N=C(N)S/C1=C\c1ccc2ncccc2c1 | > 25 | > 25 µM | > 25 | > 25 µM | > 25 | > 25 µM | > 25 | > 25 | > 25 | > 25 | > 25 | > 25 µM | > 25 | > 25 | > 25 | > 25 | > 25 | > 25 µM | > 25 | > 25 µM |
| CN(N=O)C(=O)Nc1ccc(C(=O)O)cc1 | – | > 100 µM | – | > 100 µM | – | > 100 µM | – | > 100 | – | > 100 | – | > 100 µM | – | > 100 | – | > 100 | – | > 100 µM | – | > 100 µM |
| COc1cc2oc(-c3cccc(C(=O)Nc4ccc(C)cc4)c3)cc(=O)c2c(OC)c1OC | 6.65 | > 100 µM | 1.63 | 3.56 µM | 5.39 | > 100 µM | 5.8 | > 100 | 2.26 | 7.64 | 2.21 | 21.8 µM | 2.67 | 9.31 | 2.53 | > 100 | 3.5 | > 100 µM | 1.92 | 4.5 µM |
| COc1ccc2c(c1)C(=O)c1c-2n(CCCN=[N+]=[N-])c(=O)c2cc(N)ccc12 | > 100 | > 100 µM | > 100 | > 100 µM | > 100 | > 100 µM | > 100 | > 100 | > 100 | > 100 | > 100 | > 100 µM | > 100 | > 100 | > 100 | > 100 | > 100 | > 100 µM | > 100 | > 100 µM |
| O=C(c1ccccc1)c1ccc(O)c2ncccc12 | 9.45 | 41.8 µM | 3.78 | > 100 µM | 2.1 | 6.99 µM | 3.16 | > 100 | 6.13 | 97.5 | 2.62 | 10.3 µM | 2.51 | 8.3 | 2.93 | 9.08 | 1.28 | 13.5 µM | 5.75 | > 100 µM |
| N#CSCC1CC(O)(c2ccccc2)CC(c2ccc(Cl)cc2)O1 (centres undefined) | 5.79 | 35.6 µM | 3.28 | 12.7 µM | 1.72 | 3.14 µM | 1.29 | 5 | 1.9 | 4.8 | 1.62 | 3.1 µM | 1.36 | 2.83 | 1.84 | 4.92 | 1.61 | 4.84 µM | 3.29 | 9.32 µM |
| CNC(=O)/C(=C/c1ccc(OC)cc1)c1cc(OC)c(OC)c(OC)c1 | – | > 53.7 µM | – | 3.02 µM | – | 2.5 µM | – | > 100 | – | 2.42 | – | > 72.4 µM | – | 4.39 | – | > 51.4 | – | > 86 µM | – | > 90 µM |
| C[n+]1cc2cc3c(cc2c2ccccc21)OCO3 | 2.4 | 32.2 µM | 3.17 | 30.3 µM | 3.13 | 19.4 µM | 4.02 | > 100 | 5.32 | 21 | 3.58 | > 100 µM | 2.17 | 6.23 | 2.61 | 17.3 | 27.8 | > 100 µM | 3.85 | 14 µM |
| COc1cc2c(c(OC)c1OC)C(=O)c1c-2n(CCCN=[N+]=[N-])c(=O)c2cc([N+](=O)[O-])ccc12 | > 100 | > 100 µM | 71.2 | > 100 µM | > 100 | > 100 µM | > 100 | > 100 | > 100 | > 100 | 36.1 | > 100 µM | 16.9 | 79.3 | 27.2 | > 100 | 69.7 | > 100 µM | > 100 | > 100 µM |
| CC(=O)N1N=C(c2ccc(Nc3nc(Nc4ccc(F)cc4)nc(Nc4ccc(Cl)cc4)n3)cc2)CC1c1ccc(N(C)C)cc1 (centres undefined) | 4.91 | 28 µM | 9.73 | 37.4 µM | 9.51 | 31.7 µM | 4.2 | 30.9 | 5.68 | 20.9 | 2.42 | 10.1 µM | 3.79 | > 58.3 | 3.94 | 26.9 | 3.11 | 16.6 µM | 7.67 | 26.1 µM |
| O=C(O)c1cc2cc(O)ccc2[nH]1 | > 100 | > 100 µM | > 100 | > 100 µM | > 100 | > 100 µM | > 100 | > 100 | > 100 | > 100 | > 100 | > 100 µM | > 100 | > 100 | > 100 | > 100 | > 100 | > 100 µM | > 100 | > 100 µM |
| Cc1ccc(NC(=O)N2CCCCC2)cc1[N+](=O)[O-] | > 100 | > 100 µM | > 100 | > 100 µM | > 100 | > 100 µM | > 100 | > 100 | > 100 | > 100 | > 100 | > 100 µM | 87.1 | > 100 | > 100 | > 100 | > 100 | > 100 µM | > 100 | > 100 µM |
| CC(C)c1ccc(/C=N/N=C(N)N)cc1 | 12.2 | 26.3 µM | 8.13 | 22.4 µM | 3.5 | 11.6 µM | 5.17 | 32.6 | 1.63 | 4.72 | 3.34 | 11.8 µM | 3.22 | 12.9 | 2.76 | 10.1 | 10.3 | 22.3 µM | 8.74 | 24.1 µM |
